Columns and labels:
murine intestinal crypts = assay: Small intestinal crypt organoid culture ex vivo, replacement of Rspo1; assay type: cell-based; conditions: FIG. 5
Protocol: Small intestinal crypt organoid culture was performed using murine intestinal crypts essentially as described by Ootani et al (Nature Medicine; online publication doi:10.1038/nm.1951, 27 Apr. 2009)), and see also Sato et al (Nature Letters doi:10.1038/nature07935, 2009), both incorporated by reference herein in their entireties.

[1] = tested on: C57BL/6 mice exposed to whole body irradiation (RIGS); assay: Survival (Kaplan-Meier) of mice after lethal whole body irradiation; assay type: in vivo; conditions: 10.4 Gy WBI; AdRspo1 5×10^9 particles/mice 1 hr and 48 hr post-IR, then ICG-001 150 mg/kg 72 hr post-IR; p<0.003
Protocol: C57BL/6 mice were treated with recombinant adenovirus expressing human Rspo1, AdRspo1 (5×10^9 particles/mice, 1 hr and 48 hr post-IR), followed by ICG-001 (150 mg/kg of body weight, 72 hr post-IR) after whole body irradiation (WBI) of 9.4-10.4 Gy. […] Expression of mRNA levels of β-Catenin target genes in crypt cells was determined by qRT-PCR.
To examine whether the purified recombinant hRspo1 could mitigate RIGS when administered along with ICG001, we treated C57BL/6 mice after 10.4 Gy of WBI with the combination of recombinant hRspo1+ICG-001. Specifically, C57BL/6 mice (n=10), exposed to 10.4 Gy single fraction WBI, were treated with hRspo1 (20 mg/kg of body weight s.c.) at 24 hr and 48 hr post-WBI. A separate cohort received sequential treatment of hRspo1 (24 hr and 48 hr post WBI) followed by ICG-001 (150 mg/kg of body weight, 72 hr post-IR).

[2] = tested on: asymmetric divisions in mitotic cells of the ventricular zone; assay: In vivo Par3 distribution assay of asymmetric versus symmetric divisions; design: species or system mice; conditions: for number of asymmetric divisions: topical or oral administration to pregnant mice, compared to vehicle control
Description: For example, Bultje et al. (Bultje R Neuron 63, 189-202, 2009) describe an assay to measure asymmetric distributions in the ventricular zone (vz) to evaluate asymmetric divisions during neurogenesis. Essentially this involves treating the animal (either adult or in utero) for a set period of time with compounds (either p.o., s.c., i.v. or topically) with compounds and then sacrificing the animal and examining the Par3 distribution (e.g., via immunohistochemistry) in mitotic cells vs. DNA distribution (e.g., using DAPI staining) Par3 distributes equally among the two daughter cells during symmetric division and unequally (essentially all in one daughter cell) during asymmetric differentiation.

[3] = tested on: Wnt pathway in 293T cells; assay: TopFlash luciferase β-catenin activation test; assay type: cell-based; conditions: 24 hours in 1% FCS, alone and with Wnt3A, versus commercial Rspo1 from R&D biosystems
Protocol: The recombinant cDNA used was SEQ ID NO:11, encoding for recombinant human Rspo1 (SEQ ID NO:12, with StrepII tag). Activity of the purified recombinant Rspo1 was assayed using a β-catenin activation test.
Briefly, 293T cells were transfected with the reporter vector TopFlash, along with TK Renilla (transfection control) using lipofectamine 2000. After the transfection mixture was removed, cells were incubated in 0.1% FCS o/n, and then stimulated with the different inducers at the indicated concentrations in 1% FCS for 24 hours (FIG. 11).

[4] = tested on: mouse intestinal organoids; assay: Intestinal organoid growth/maintenance assay; assay type: cell-based
Protocol: The recombinant human Rspo1 was also tested in an intestinal organoid growth/maintenance test. Self-renewal of the small intestinal and colonic epithelium is driven by the proliferation of stem cells and their progenitors; and their maintenance and growth in culture (ex-vivo) requires the activation of the Wnt pathway. Given that it is essential, only functional Rspo1 will be able to maintain the growth of intestinal organoids and lead to their maintenance and proliferation. FIGS. 12A and 12B show, according to particular exemplary aspects, testing of functionality of recombinant human Rspo1 in an intestinal organoid growth/maintenance assay.
Organoids were generated by culturing purified small intestinal crypts in matrigel in Advanced DMEM/F12 supplemented with 500 ng/ml R-spondin 1 [commercial (FIG. 12A) or recombinant (FIG. 12B)], 100 ng/ml EGF and 100 ng/ml Noggin.

Cc1c[nH]c(-c2cnc(NCCNc3ccc(C#N)cn3)nc2-c2ccc(Cl)cc2Cl)n1 [CHIR]
replacement of Rspo1 for maintenance of small intestinal crypt organoid cultures (murine intestinal crypts): can be used to replace (for at least up to 4 days) Rspo1

O=C1[C@H](Cc2ccc(O)cc2)N2C(=O)CCN(C(=O)NCc3ccccc3)[C@H]2CN1Cc1cccc2ccccc12 [ICG-001]
mice rescued from radiation lethality [1]: 60% | number of asymmetric divisions [2]: does not affect the number of asymmetric divisions | effect on the defect in asymmetric divisions caused by IQ-1 ([2]; treatment with excess ICG-001): corrects the defect in asymmetric divisions caused by IQ-1

CC(=O)c1ccc(N=NC(C(N)=O)=C2NC(C)(C)Cc3ccccc32)cc1 [IQ-1, reference compound]
number of symmetric divisions ([2]; pregnant mice): increases the number of symmetric divisions | number of asymmetric divisions [2]: decreases the number of asymmetric divisions

[Cl-].[Li+] [LiCl]
replacement of Rspo1 for maintenance of small intestinal crypt organoid cultures (murine intestinal crypts): can be used to replace (for at least up to 4 days) Rspo1

O=c1cc(-c2ccccc2)oc2ccc3ccccc3c12 [beta napthoflavone]
replacement of Rspo1 for maintenance of small intestinal crypt organoid cultures (murine intestinal crypts): can be used to replace (for at least up to 4 days) Rspo1

B1: recombinant human Rspo1: purified recombinant human R-spondin1, SEQ ID NO:12, with StrepII tag at the c-terminal end (protein)
chain: MRLGLCVVALVLSWTHLTISSRGIKGKRQRRISAEGSQACAKGCELCSEVNGCLKCSPKLFILLERNDIRQVGVCLPSCPPGYFDARNPDMNKCIKCKIEHCEACFSHNFCTKCKEGLYLHKGRCYPACPEGSSAANGTMECSSPAQCEMSEWSPWGPCSKKQQLCGFRRGSEERTRRVLHAPVGDHAACSDTKETRRCTVRRVPCPEGQKRRKGGQGRRENANRNLARKESKEAGAGSRRRKGQQQQQQQGTVGPLTSAGPAESAWSHPQFEK
modifications: C-terminal StrepII tag; human Rspo1 protein variant with SrepII tag (ESAWSHPQFEK) at c-terminus
activation of β-catenin (TopFlash luciferase) [3]: capable of activating β-catenin by itself and synergizing with Wnt (e.g., Wnt3A) as well as, if not better, than the commercially obtained Rspo1 | ability to maintain and induce sprouting (proliferation) of the organoids, versus commercial protein ([4]; 500 ng/ml R-spondin 1): identical to the commercial protein | maintenance of growth and proliferation of intestinal organoids ([4]; 500 ng/ml R-spondin 1, 100 ng/ml EGF, 100 ng/ml Noggin, matrigel): capable of maintaining the growth and proliferation of mouse intestinal organoids in culture
